# Test results taken from patent US4096173A, “Chlorinated 1-aminoindane N-methyl transferase inhibitors” (Eli Lilly and Company, priority 1977, dated 1978).
# Structures can show the parent of a compound that is named as a salt. Where two headings read alike, the source gives them in different places.
# Assays:
# catechol amine uptake = conditions: comparison stated in the literature; cited from earlier work
# [1] = target: T1, NMT from rabbit adrenals (norephineprine N-methyl transferase, PNMT) (Oryctolagus cuniculus, UniProt G1TT82); experiment: In vitro inhibition of N-methyl transferase (NMT) from rabbit adrenals; assay type: biochemical
# T1 construct: NMT from rabbit adrenals; from tissue; host or cells: rabbit adrenals
# T1 sequence (G1TT82 1-286): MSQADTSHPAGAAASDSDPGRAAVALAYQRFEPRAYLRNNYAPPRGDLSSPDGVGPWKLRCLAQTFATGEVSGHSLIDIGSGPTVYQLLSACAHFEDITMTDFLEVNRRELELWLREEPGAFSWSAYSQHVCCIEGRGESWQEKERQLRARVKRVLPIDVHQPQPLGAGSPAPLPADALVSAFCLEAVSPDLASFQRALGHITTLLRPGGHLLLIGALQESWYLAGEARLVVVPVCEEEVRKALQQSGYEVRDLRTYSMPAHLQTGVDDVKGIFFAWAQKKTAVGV
# Source text: The compounds of this invention, either in the form of the free base, or as a pharmaceutically-acceptable acid addition salt thereof, are enzyme inhibitors. In particular, as previously stated, they are inhibitors of norephineprine N-methyl transferase [PNMT or phenethanolamine N-methyl transferase--see Axelod, J. Bio, Chem., 237, 1657 (1962)]. Compounds which inhibit the conversion of norephineprine to […], are capable of lowering a high […]-norephineprine ratio in mammals, a physiological condition frequently associated with essential hypertension. The compounds of this invention are thus capable of ameliorating the […]-norephineprine imbalance in essential hypertension, an important aspect of the treatment of this disease state. The effectiveness of the compounds as N-methyl transferase inhibitors has been measured in vitro using NMT from rabbit adrenals. […] The negative reciprocal logarhithm (pI50) of this number was also calculated as a useful index. Table 1, which follows, summarizes the information thus obtained; i.e., the determination of enzyme inhibition activity for the compounds of this invention.
# [2] = read-out: pI50 (negative reciprocal logarhithm of the 50 percent inhibitory concentration) (converted)
# [3] = series of decreasing inhibitor concentrations from 1 × 10^-4 M, read-out: 50 Inhibitory Concentration (concentration at which 50 percent inhibition of NMT is obtained)
SMILES,"inhibition of catechol amine uptake, compared with 1-aminoindane (catechol amine uptake)","IC50 [1, 2]","IC50 [1, 3]"
NC1Cc2ccccc2C1 [2-aminoindane],better inhibitor of catechol amine uptake than 1-aminoindane,–,–
"NC1CCc2c1ccc(Cl)c2Cl (stereo not drawn) [4,5-dichloro-1-aminoindane]",–,0.2 µM,0.2 µM
"NC1CCc2c(Cl)cccc21 (stereo not drawn) [4-Chloro-1-aminoindane hydrochloride, 4-chloro-1-aminoindane hydrochloride]",–,0.759 µM,0.757 µM
"NC1CCc2cc(Cl)c(Cl)cc21 (stereo not drawn) [5,6-dichloro-1-aminoindane maleate]",–,4.68 µM,2.95 µM
"NC1CCc2ccc(Cl)c(Cl)c21 (stereo not drawn) [6,7-dichloro-1-aminoindane]",–,6.03 µM,5.37 µM
